Experiment [1] has as its system SB.msgc-1. Briefly: viability at highest tested concentration (MAXR) relative to DMSO; higher = less cytotoxic. Conditions: SB.msgc-1 (sporadic gastric cancer). In outline: (§1)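 Compound in DMSO was pinned (23 nL) at 11 threefold-diluted concentrations into wells containing 500 patient-derived gastric cancer cells, hereditary or sporadic, in 5 μL medium per 1536 well. Cells were incubated for 48 h, then exposed to CellTiter-Glo for 30 min at room temperature. Luminescence was measured on a ViewLux. The values are viability normalised to DMSO, either at the highest concentration or as trapezoidal area under the curve.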

For experiment [2], the system named is SB.mhdgc-1. The experiment is described as above. The settings on record: SB.mhdgc-1 (hereditary c.1380delA CDH1 gastric cancer). In outline:
as §1

The test system of experiment [3] is SB.msgc-1. Description: area under the dose-response curve of % viability (trapezoidal, 11 doses) (% viability x log10 concentration); higher = less cytotoxic. The settings on record: SB.msgc-1 (sporadic gastric cancer). In outline: as §1
In experiment [4] the test system is SB.mhdgc-1. The description is as above. The settings on record: SB.mhdgc-1 (hereditary c.1380delA CDH1 gastric cancer). A digest of the protocol: as §1

Counter-ions that a name gives are not always drawn.

As usually defined, the viability is a read-out of living cells in per cent, often relative to untreated cells. As to `Nc1nc(N)c2nc(-c3cccc(O)c3)c(-c3cccc(O)c3)nc2n1` (top concentration 46.0829 µM), the viability with SB.msgc-1 [1] was 38.3%; in the experiment on SB.mhdgc-1 [2], 35.2%. Further, the “area under the dose-response curve” value was determined as 480 in the experiment with SB.msgc-1 [3] and 445 in the experiment with SB.mhdgc-1 [4].

Consider `CCN(CCO)CCCOc1ccc2c(Nc3cc(CC(=O)Nc4cccc(F)c4)[nH]n3)ncnc2c1` [AZD-1152-HQPA] (top concentration 46.0829 µM), for which the viability is 104% in the experiment on SB.msgc-1 [1] and 92.4% with SB.mhdgc-1 [2]. The entries for the “area under the dose-response curve” value in the experiment on SB.msgc-1 [3] and in the experiment with SB.mhdgc-1 [4] were 554 and 413, respectively.

As to `Cc1nc(Nc2n[nH]c3c2CN(C(=O)N[C@H](CN(C)C)c2ccccc2)C3(C)C)c2sccc2n1` (top concentration 46.0829 µM), the results for the viability with SB.msgc-1 [1] and with SB.mhdgc-1 [2] were 33.7% and 35.4%, respectively. The “area under the dose-response curve” value in the experiment with SB.msgc-1 [3] is 284; in the experiment with SB.mhdgc-1 [4], 310.

As to `CCCCn1c(=O)n(Cc2ccccc2F)c(=O)c2nc(Cc3ccc(NC(C)=O)cc3)[nH]c21` [cPEPCK inhibitor] (top concentration 46.0829 µM), the viability came out at 61% with SB.msgc-1 [1] and 54.1% in the experiment on SB.mhdgc-1 [2]. Further, the “area under the dose-response curve” value was determined as 411 in the experiment on SB.msgc-1 [3] and 421 in the experiment on SB.mhdgc-1 [4].

With `C=CC(=O)Nc1cccc(Oc2nc(Nc3ccc(N4CCN(C)CC4)cc3)ncc2Cl)c1` [WZ-3146] (top concentration 46.0829 µM), the figures for the viability in the experiment with SB.msgc-1 [1] and with SB.mhdgc-1 [2] were 1.38% and 3.3%, respectively. Further, the “area under the dose-response curve” value with SB.msgc-1 [3] was found to be 276; in the experiment on SB.mhdgc-1 [4], 391.

Turning to `CCCN[C@H]1CCc2nc(N)sc2C1` [Pramipexole hydrochloride] (top concentration 46.0829 µM), the viability with SB.msgc-1 [1] was determined as 113%; in the experiment on SB.mhdgc-1 [2], 85.9%. Moreover, the “area under the dose-response curve” value in the experiment on SB.msgc-1 [3] came out at 506; in the experiment with SB.mhdgc-1 [4], 495.

Turning to `O=C(NCc1ccccc1)c1csc(Nc2ccncn2)n1` [Thiazovivin] (top concentration 46.0829 µM), the viability with SB.msgc-1 [1] was found to be 56.6%; with SB.mhdgc-1 [2] it was 15.5%. The “area under the dose-response curve” value in the experiment on SB.msgc-1 [3] was determined as 496; in the experiment on SB.mhdgc-1 [4] it was 413.

`C[C@@H](O)[C@@H]1[C@H]2[C@@H](C)\C(=C(/N2C1=O)C(=O)OCOC(=O)C(C)(C)C)SC3CN(C3)/C4=N/CCS4` [Tebipenem pivoxil] (top concentration 46.0829 µM): the viability came to 91.9% in the experiment on SB.msgc-1 [1] and 115% in the experiment with SB.mhdgc-1 [2]. The “area under the dose-response curve” value with SB.msgc-1 [3] amounted to 529; with SB.mhdgc-1 [4] it was 530.

Consider `CNCC(O)C(O)C(O)C(O)CO.O=C(O)c1ccc(-c2cc3cccnc3c(-c3ccc4nonc4c3)n2)cc1` [NVP-ABE171] (top concentration 46.0829 µM), for which the viability in the experiment on SB.msgc-1 [1] came to 20.2%; with SB.mhdgc-1 [2], 7.16%. Moreover, the “area under the dose-response curve” value with SB.msgc-1 [3] is 511; in the experiment on SB.mhdgc-1 [4], 567.

With `CC(C)CNc1ccnc(NCc2csc(-c3ccccc3)n2)n1` [KHS101] (top concentration 46.0829 µM), the viability in the experiment on SB.msgc-1 [1] is 34.8%; with SB.mhdgc-1 [2], 10.6%. The “area under the dose-response curve” value in the experiment on SB.msgc-1 [3] was determined as 449; in the experiment on SB.mhdgc-1 [4], 438.

With `COc1ccc([S+](=O)([O-])Nc2cc(-c3c(O)ccc4ccccc34)c(O)c3ccccc23)cc1` [C-188-9] (top concentration 46.0829 µM), the viability turned out to be 43.1% in the experiment with SB.msgc-1 [1] and 3.52% in the experiment on SB.mhdgc-1 [2]. Also, the “area under the dose-response curve” value with SB.msgc-1 [3] stood at 469; with SB.mhdgc-1 [4], 423.

As to `COC1=C2OC(=O)\C=C/C2=CC3=C1OC=C3` [Methoxsalen] (top concentration 46.0829 µM), the viability in the experiment on SB.msgc-1 [1] amounted to 105%; in the experiment with SB.mhdgc-1 [2], 101%. In addition, the “area under the dose-response curve” value with SB.msgc-1 [3] stood at 510; in the experiment with SB.mhdgc-1 [4], 476.

For `CC/1=C(/N2[C@H](SC1)[C@H](NC(=O)[C@H](N)\C3=C\C\C=C/C3)C2=O)C(O)=O` [Cephradine] (top concentration 46.0829 µM), the viability in the experiment with SB.msgc-1 [1] is 121%; with SB.mhdgc-1 [2], 108%. Besides, the “area under the dose-response curve” value in the experiment with SB.msgc-1 [3] worked out at 538; with SB.mhdgc-1 [4], 571.

Take `CC[C@@]1(O)C(=O)OC\C2=C1\C=C3/N(CC4=CC5=C(C=CC(=C5CN(C)C)O)N=C34)C2=O` [Topotecan hydrochloride] (top concentration 46.0829 µM): the viability in the experiment with SB.msgc-1 [1] is 26.5%; in the experiment on SB.mhdgc-1 [2] it was 48.2%. Besides, the “area under the dose-response curve” value turned out to be 338 with SB.msgc-1 [3] and 241 with SB.mhdgc-1 [4].

Take `COc1cc(N2CCN(C)CC2)ccc1Nc1nc(N)c(C(=O)c2c(Cl)cccc2Cl)s1` (top concentration 46.0829 µM): the figures for the viability in the experiment with SB.msgc-1 [1] and in the experiment on SB.mhdgc-1 [2] were 53.8% and 35.6%, respectively. For the same compound, the “area under the dose-response curve” value is 478 with SB.msgc-1 [3] and 457 with SB.mhdgc-1 [4].

On to `CCN(C(=O)C/1=C(O)/C2=C(C=CC=C2Cl)N(C)C1=O)C3=CC=CC=C3` [Laquinimod] (top concentration 46.0829 µM), for which the viability in the experiment on SB.msgc-1 [1] was found to be 96.7%; in the experiment with SB.mhdgc-1 [2], 112%. Besides, the “area under the dose-response curve” value was determined as 489 with SB.msgc-1 [3] and 559 with SB.mhdgc-1 [4].

With `CC1(C)CCC(C)(C)c2cc(NC(=O)c3ccc(C(=O)O)cc3)ccc21` [Tamibarotene] (top concentration 46.0829 µM), the viability in the experiment with SB.msgc-1 [1] was determined as 61.8%; with SB.mhdgc-1 [2] it was 104%. The “area under the dose-response curve” value in the experiment on SB.msgc-1 [3] came out at 439; with SB.mhdgc-1 [4], 561.

Take `NC/1=N/C(=O)N(/C=C1F)[C@H]2CS[C@H](CO)O2` [Emtricitabine] (top concentration 46.0829 µM): the viability with SB.msgc-1 [1] worked out at 120%; in the experiment on SB.mhdgc-1 [2] it was 112%. For the same compound, the “area under the dose-response curve” value in the experiment with SB.msgc-1 [3] turned out to be 520; with SB.mhdgc-1 [4] it was 534.

Turning to `C1CCC(C(CC2CCCCN2)C2CCCCC2)CC1` (centres undefined) [Perhexiline] (top concentration 46.0829 µM), the values for the viability in the experiment with SB.msgc-1 [1] and with SB.mhdgc-1 [2] were 4.24% and 4.86%, respectively. In addition, the figures for the “area under the dose-response curve” value in the experiment on SB.msgc-1 [3] and in the experiment on SB.mhdgc-1 [4] were 493 and 551, respectively.

In the case of `CCc1nc(-c2cccc(C)c2)c(-c2ccnc(NC(=O)c3ccccc3)c2)s1` [TAK-715] (top concentration 46.0829 µM), the results for the viability with SB.msgc-1 [1] and in the experiment with SB.mhdgc-1 [2] were 39.3% and 52.5%, respectively. Besides, the “area under the dose-response curve” value was found to be 489 in the experiment on SB.msgc-1 [3] and 452 in the experiment with SB.mhdgc-1 [4].

For the compound `NC(=O)[C@@H](CCC(F)(F)F)N(Cc1ccc(-c2ncon2)cc1F)[S+](=O)([O-])c1ccc(Cl)cc1` [Avagacestat] (top concentration 46.0829 µM), the viability is 68.8% with SB.msgc-1 [1] and 91.5% in the experiment with SB.mhdgc-1 [2]. Further, the “area under the dose-response curve” value in the experiment with SB.msgc-1 [3] was determined as 487; in the experiment on SB.mhdgc-1 [4] it was 491.

For the origin of these results see the supplement of paper PMC5412046.
